Tests used:
VEGF [1] = target: T1, VEGF (Homo sapiens, UniProt P15692); test: Release of VEGF from functionalized microspheres; conditions: for bound VEGF released in 24 hours: microspheres incubated in a medium containing 10% FBS; for VEGF release relative to monomer microspheres (in words) / duration of sustained VEGF release: microspheres pre-incubated in 40 ng/ml VEGF solution (Fig. 3a)
T1 sequence (P15692 1-191 isoform P15692-4): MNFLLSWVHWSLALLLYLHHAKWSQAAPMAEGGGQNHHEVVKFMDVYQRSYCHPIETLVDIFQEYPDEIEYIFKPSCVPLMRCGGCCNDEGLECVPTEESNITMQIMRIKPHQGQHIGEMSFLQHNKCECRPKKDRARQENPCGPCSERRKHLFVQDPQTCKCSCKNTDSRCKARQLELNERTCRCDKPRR

VEGF [2] = target: T1, VEGF; format: binding; conditions: Fig. 1b; varying concentrations of VEGF; microspheres containing lysine modified dimers
[3] = system: uterine artery endothelial cells (UAECs); conditions: 10 ng/ml VEGF-165; compared with VEGF-free condition

Substance | bound VEGF released in 24 hours (VEGF [1]) | VEGF release relative to monomer microspheres (in words) (VEGF [1]) | duration of sustained VEGF release (VEGF [1]) | VEGF binding efficiency over a range of VEGF concentrations (in words) (VEGF [2]) | percent of responding UAECs (in words) [3]
(EFdAdYdLdIDFNWEYPAS)2KKKC [dimerb] | 72 ± 2% | released significantly more VEGF and over a longer period of time relative to microspheres containing the monomer version | over 30 days | consistently showed a higher VEGF binding efficiency than dimera | –
(EFdAdYdLdIDFNWEYPASK)2KC [dimera] | 48 ± 5% | released significantly more VEGF and over a longer period of time relative to microspheres containing the monomer version | over 30 days | – | reduced to the same level as the VEGF-free condition

Reference: article PMC3925890 (Advanced healthcare materials, 2012)
